Measurements from PMC8893300, “A Dynamic Mass Redistribution Assay for the Human Sweet Taste Receptor Uncovers G-Protein Dependent Biased Ligands” (Frontiers in Pharmacology, 2022).
Where two headings read alike, the source gives them in different places. Marks after values point to notes of the source that are not given here.

Molecular target: T1, human sweet taste receptor (hT1R2/hT1R3) coupled to Gα15 (Homo sapiens, UniProt Q7RTX0+Q8TE23)
T1 construct: expressed in transfected cells
T1 sequence (Q8TE23 20-839): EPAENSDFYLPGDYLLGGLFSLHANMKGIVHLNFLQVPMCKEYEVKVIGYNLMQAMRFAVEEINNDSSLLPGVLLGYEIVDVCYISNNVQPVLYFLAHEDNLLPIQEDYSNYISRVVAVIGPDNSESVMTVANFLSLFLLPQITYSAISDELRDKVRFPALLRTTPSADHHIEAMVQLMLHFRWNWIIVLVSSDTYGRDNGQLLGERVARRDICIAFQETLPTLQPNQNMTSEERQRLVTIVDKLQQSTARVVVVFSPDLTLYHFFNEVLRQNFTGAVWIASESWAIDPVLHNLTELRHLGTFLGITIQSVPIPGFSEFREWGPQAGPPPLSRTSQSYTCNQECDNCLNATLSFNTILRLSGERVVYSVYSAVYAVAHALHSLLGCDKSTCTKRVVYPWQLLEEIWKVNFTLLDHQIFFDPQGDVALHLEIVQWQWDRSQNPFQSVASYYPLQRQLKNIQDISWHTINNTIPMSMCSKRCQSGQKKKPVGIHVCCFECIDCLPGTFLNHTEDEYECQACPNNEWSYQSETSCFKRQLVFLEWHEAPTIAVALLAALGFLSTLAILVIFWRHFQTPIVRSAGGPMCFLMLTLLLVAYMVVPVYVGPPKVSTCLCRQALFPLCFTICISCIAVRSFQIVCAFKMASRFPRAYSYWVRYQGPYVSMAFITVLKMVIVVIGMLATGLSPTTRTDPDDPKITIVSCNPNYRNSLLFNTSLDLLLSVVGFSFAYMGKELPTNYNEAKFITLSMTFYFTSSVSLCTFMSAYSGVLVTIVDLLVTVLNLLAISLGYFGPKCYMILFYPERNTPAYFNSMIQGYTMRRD
T1 sequence (Q7RTX0 21-852): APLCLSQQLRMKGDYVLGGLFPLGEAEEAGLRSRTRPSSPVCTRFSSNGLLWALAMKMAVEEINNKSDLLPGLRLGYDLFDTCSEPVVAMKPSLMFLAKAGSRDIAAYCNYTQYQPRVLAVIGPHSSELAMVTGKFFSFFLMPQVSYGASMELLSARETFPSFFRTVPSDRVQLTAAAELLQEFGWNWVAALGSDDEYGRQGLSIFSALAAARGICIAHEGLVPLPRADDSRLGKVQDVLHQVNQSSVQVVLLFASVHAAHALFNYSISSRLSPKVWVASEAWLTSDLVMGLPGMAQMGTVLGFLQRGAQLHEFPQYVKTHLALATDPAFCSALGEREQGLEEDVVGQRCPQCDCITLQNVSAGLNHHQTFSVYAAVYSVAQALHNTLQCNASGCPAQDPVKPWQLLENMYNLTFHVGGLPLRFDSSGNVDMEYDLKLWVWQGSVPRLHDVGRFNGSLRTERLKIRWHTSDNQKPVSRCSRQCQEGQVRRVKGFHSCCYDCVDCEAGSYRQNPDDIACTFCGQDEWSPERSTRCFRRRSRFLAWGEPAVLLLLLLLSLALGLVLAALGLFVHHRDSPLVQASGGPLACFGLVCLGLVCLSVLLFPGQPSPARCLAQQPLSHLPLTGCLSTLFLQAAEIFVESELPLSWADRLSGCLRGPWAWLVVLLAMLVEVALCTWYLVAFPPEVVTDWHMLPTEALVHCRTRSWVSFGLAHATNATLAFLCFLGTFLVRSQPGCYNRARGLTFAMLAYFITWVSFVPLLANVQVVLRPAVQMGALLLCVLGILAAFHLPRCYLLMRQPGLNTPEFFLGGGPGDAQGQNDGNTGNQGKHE
Assay: FLIPR calcium mobilization assay, R2/R3 U2OS cells transduced with Gα15 baculovirus
Type: cell-based
Details: for ΔlogR FLIPR Mean: FLIPR-Gα15, operational model, logR minus sucralose logR; for Activity in FLIPR assay Emax: Gα15, top asymptote of dose-response normalized to 1 mM sucralose; for EC50: R2/R3 U2OS cells expressing Gα15; for Bias factor: inverse log of ΔΔlogR, FLIPR-Gα15 vs DMR; for ΔΔlogR Mean: ΔlogR FLIPR-Gα15 minus ΔlogR DMR; for fold difference DMR EC50 vs FLIPR EC50 (more potent in FLIPR): DMR EC50 over FLIPR-Gα15 EC50

[1] = read-out: Activity in FLIPR assay EC50
[2] = read-out: Activity in FLIPR assay pEC50 (converted)

COC(=O)[C@H](Cc1ccccc1)NC(=O)[C@H](CC(=O)O)NCCC(C)(C)C [Neotame]
ΔlogR FLIPR Mean: 1.65 | Activity in FLIPR assay Emax: 116**** | EC50 [1]: 1600 nM | EC50 [2]: 1530 nM | Bias factor: 3.2 | ΔΔlogR Mean: 0.50

CC(C)Oc1ccc(NC(=S)NCc2ccc[nH]2)cc1 [S819]
fold difference DMR EC50 vs FLIPR EC50 (more potent in FLIPR): about 10 times | ΔlogR FLIPR Mean: 3.11 | Activity in FLIPR assay Emax: 181**** | EC50 [1]: 70 nM | EC50 [2]: 74.5 nM | Bias factor: 3.9 | ΔΔlogR Mean: 0.59

CC(C)Oc1ccc(NC(=S)NCc2cccs2)cc1 [S5227]
fold difference DMR EC50 vs FLIPR EC50 (more potent in FLIPR): about 10 times | ΔlogR FLIPR Mean: 2.52 | Activity in FLIPR assay Emax: 177**** | EC50 [1]: 300 nM | EC50 [2]: 335 nM | Bias factor: 4.8 | ΔΔlogR Mean: 0.68
